The source of these data is a melting point compilation (Tetko et al.; mined from patent text by program, amines drawn as free bases though some values may be those of a salt).

In the case of `COC(=O)c1cnn(OCCCC2OCCO2)c1`, the melting point lay in the range of 40 to 42 °C.
As to `COc1cc(N)c(Cl)cc1C(=O)NCC1CNCCO1` (centres undefined), the melting point was in the range of 161 to 162 °C.
The figure for `COC(=O)c1ccc2c(c1)C(CNC(=O)OC(C)(C)C)CCC2` (centres undefined) is 72 to 80 °C; for `COC(=O)c1nnc(NC(=O)CCCOc2cccc(CN3CCCCC3)c2)n1C` it is 108 to 110 °C; for `COc1ccc(C(=O)N2CCCC3=C2CCc2cc(Cl)ccc23)cc1` it is 182 to 183 °C.
Compound `CCCCOc1ccc2c(c1)C(N(C)S(C)(=O)=O)=CC(C)(C)O2` came in with a melting point of 114 to 116 °C.
Compound `CCOc1ccccc1N1C(=O)CC(N(O)c2ccccc2)C1=O` (centres undefined) yielded a melting point of 174 to 175 °C.
The figure for `COC(=O)C(CC1CCCC1)c1ccc(I)cc1` (centres undefined) is 51 to 54 °C.
As for `C=CCCc1ccc(C=NN=Cc2ccc(CCC=C)cc2)cc1`, the melting point came out at 57 °C.
Regarding `CC(C)(C)OC(=O)C=C1CN=C(c2ccccc2F)c2cc(Cl)ccc2N1`, the melting point lay within 158 to 160 °C.
For `CCCN(Cc1ccc(-c2ccccc2-c2nc(=O)s[nH]2)cc1)c1nc2ccccc2cc1C(=O)O` the value was 118 to 124 °C.
The compound `CC(=O)Nc1ccc(S(=O)(=O)F)cc1` yielded a melting point of 169 to 171 °C.
Compound `Cc1cc(C)c([N+](=O)[O-])c(C)c1-c1n[nH]c2c(C#N)c(C(C)(C)C)nn12` displayed a melting point of 265 to 266 °C.
For `c1ccc(Cn2ccc3nnc4ccccc4c32)cc1` the value was 190 to 192 °C; for `CCNC(=O)CCCNC(=O)OC(C)(C)C`, 82 to 83 °C.
In turn, `Cc1cccc2c1Sc1ccccc1N2` had a melting point of 115 °C.
Compound `O=C1OC2(CCN(C(=O)Nc3ncc(-c4ccccc4)cn3)CC2)c2cccc(F)c21` came in with a melting point of 247 to 249 °C.
For the compound `CCCCCS(=O)(=O)NC(=O)/C=C/c1ccc(OCC(COC(C)C)OC(C)=O)cc1Oc1ncc(C(F)(F)F)cc1Cl` (centres undefined), the melting point was 101 to 103 °C.
The compound `Cc1ccc(N=C(NC#N)NCc2ccc3c(c2)CN(C2CCC(=O)NC2=O)C3=O)cc1Cl` (centres undefined) returned a melting point of 325 to 327 °C.
The figure for `CCCNC(=O)Nc1ccc(SC)cc1C(=O)NCC1CCN(C(c2ccccc2)c2ccccc2)CC1` is 196 to 198 °C; for `COc1ccc(NS(C)(=O)=O)cc1C(=O)NC1CCN(C2CCCCC2)C1` (centres undefined) it is 170 to 172 °C; for `Cc1cccc(NC(=O)CN2c3ccc(Cl)c(Cl)c3[C@@H]3CCN(C(=O)OC(C)(C)C)CC[C@@H]32)c1C` (relative stereo) it is 146 °C.
The compound `NNc1ccc2c(=O)[nH]ccc2c1` yielded a melting point of 270 °C.
The figure for `COc1ccccc1Oc1c(Cl)nc(-c2ccoc2)nc1NS(=O)(=O)c1ccc(C(C)(C)C)cc1` is over 300 °C; for `Cc1cc(C)c(Oc2ccc(C=NNC(N)=O)cc2)c(C)c1` it is 189 to 190 °C; for `O[C@@H](COc1cccc(-c2noc3ccsc23)c1)CN1CCN(c2n[nH]c3cc(F)ccc23)CC1` it is 97 to 99 °C.
`N#Cc1c(-c2ccccc2)c(Cl)n2c1CNCC2` registered a melting point of 128 to 130 °C.
On to `Cn1c(C(F)(F)F)cc(=O)n(-c2ccc3snc(CS(=O)(=O)CC(=O)O)c3c2)c1=O`, for which the melting point was determined as 215 °C.
The compound `Clc1ccc2c(c1)C(c1ccccc1)=NCc1nnc(-c3ccccc3)n1-2` yielded a melting point of 194 °C.
In turn, `CCc1cn2nc(C)ccc2n1` came in with a melting point of 53 to 55 °C.
For `CC(C)(CO)NS(=O)(=O)c1cncc(Br)c1` the value was 112 °C.
For `CC(C)(C)COc1c(-c2ccc(S(C)(=O)=O)cc2)cnn(CC(F)(F)F)c1=O` the value was 145 to 146 °C; for `CCCOc1ccc(S(=O)(=O)N2CCN(CCOC(=O)c3ccccc3)CC2)cc1-c1nc2c(CCC)cn(CC)c2c(=O)[nH]1`, 78 to 79 °C; for `COc1ccc(CCCCC(=O)O)cc1NC(=O)C[C@H]1O[C@H](c2cccc(OC)c2OC)c2cc(Cl)ccc2N(CC(C)(C)CO)C1=O`, 136 to 138 °C.
The figure for `Cc1cc(OCc2ccccc2)cc(C)c1CC(=O)O` is 149 to 150 °C; for `N#CCc1ccc(Br)nc1` it is 55.5 to 57.5 °C.
`CCOC(=O)c1cnn(-c2ccc(CBr)cc2)n1`: the melting point lay in the range of 148 to 149 °C.
Consider `N#CCSc1ccc([N+](=O)[O-])cc1`, for which the melting point was 77 to 79 °C.
As to `CCCCCCCc1nnc(-c2ccc(O)cc2)s1`, the melting point is 100 °C.
The compound `Cc1csc(-c2ccc3c(c2)c2cc(-c4ccc(Cl)cc4Cl)c(=O)n(C)c2n3C)n1` gave a melting point of 255 to 257 °C.
The figure for `CCOc1cccc(-c2nc3ccc(C(=O)O)cc3c(=O)[nH]2)c1OCC` is over 320 °C; for `Cc1noc(CCNC(c2ccccc2)(c2ccccc2)c2ccccc2)n1` it is 100 to 101 °C.
The compound `COc1ccc(/C=C/S(=O)(=O)Nc2ccc(F)cc2)cc1` showed a melting point of 115 to 117 °C.
The figure for `CC1CC(=O)NN=C1c1ccc(-n2ccc(CO)c2)cc1` (centres undefined) is 184 to 186 °C; for `CNCc1cccc(CN(C)c2nc(=O)c3c(C)c(OC)c(OC)cc3[nH]2)c1` it is 179 to 181 °C.
Turning to `COC(=O)c1ncoc1C(C)C`, the melting point lay within 49 to 50 °C.
For `O=C(O)c1cc2cc(O)c(O)cc2nc1C(=O)O` the value was over 300 °C; for `Nc1ccc(F)c(-n2cc(C(=O)O)c(=O)c3cc(F)c(F)c(Cl)c32)n1`, 228 to 230 °C; for `N#CC(c1ccc(O)cc1)c1c(Cl)cc(-n2ncc(=O)[nH]c2=O)cc1Cl` (centres undefined), 210 °C.
The figure for `CCc1c2s[nH]c(=O)c2c(=O)n2ccc(Cl)cc12` is 222 to 223 °C; for `Cc1ccc(S(=O)(=O)Oc2ccc3c4c(nn3CCCN)-c3cnccc3C(=O)c24)cc1` it is 211 to 213 °C; for `CC(Cc1ccc(O)cn1)NC1CC1` (centres undefined) it is 161 °C.
Turning to `CCOC(OCC)N1C(=O)OC(C)(C)c2cc(-c3cc(F)cc(C#N)c3)ccc21`, the melting point fell in the range of 123 to 124 °C.
The figure for `COc1nc2ccc(Br)cc2c2c1Cc1ccccc1-2` is 150 to 152 °C.
Compound `CC(CO)N=C(c1ccccc1)c1cc(Cl)ccc1NC(=O)CN` (centres undefined) returned a melting point of 168 to 172 °C.
In the case of `CNC(=NC#N)NCc1cccc(-c2csc(N=C(N)N)n2)n1`, the melting point was in the range of 245 to 246 °C.
Compound `Cc1cc(OC(C)c2sc(-c3ccc(C(F)(F)F)cc3F)nc2C)ccc1OC(C)(C)C(=O)O` (centres undefined) gave a melting point of 133 °C.
In the case of `CC1(C)CCc2c(N3CCOCC3)nc3sc4c(NCCCN5CCCC5=O)ncnc4c3c21`, the melting point lay in the range of 142 to 143 °C.
For `CCC1(c2ccccc2)Cc2cc(O)c(Cl)c(Cl)c2C1=O` (centres undefined) the value was 177 to 179 °C; for `Cc1ccc(S(=O)(=O)N2CCC[C@H]2C(=O)N[C@@H](Cc2ccc(NC(=O)C3CCNCC3)cc2)C(=O)O)cc1`, 125 to 128 °C.
In the case of `COc1ccc(NC(=O)c2ccc([N+](=O)[O-])cc2)c(OC)c1`, the melting point fell in the range of 172 to 174 °C.
The compound `Nc1nc(-c2ccc(CCN3CCN(c4cccc5cc(Cl)ccc45)CC3)cc2)cs1` displayed a melting point of 210 to 215 °C.
The figure for `COc1ccc(CC2(C(F)F)NC(=O)NC2=O)cc1` (centres undefined) is 164 °C; for `COC(=O)CC(O)CP(=O)(C#Cc1c(-c2ccc(F)cc2)c2n(c1C(C)C)CCCC2)OC` (centres undefined) it is 145 to 146 °C; for `CCOc1ccccc1-c1nc2cc3nc[nH]c3cc2c(=O)[nH]1` it is 194 to 196 °C.
For `COC(=O)Cn1c(C(=O)NC(N)=S)c(C)c2cc(C)ccc21` the value was 210 to 212 °C.
For `CON1CCC2(CC1)OC(=O)C(c1cc(C)ccc1C)=C2O` the value was 205 to 208 °C.
`CCCCCCCCCCCCCCCCSCC(COS(C)(=O)=O)NC(=O)OC` (centres undefined) yielded a melting point of 82 to 83 °C.
For the compound `CC(F)c1nc2ncnn2c(NC2CCC(C(C)(C)C)CC2)c1Cl` (centres undefined), the melting point was in the range of 138 to 139 °C.
With `Cc1nn(C)c2c1c1oc(=O)c(Sc3ccccc3)c(O)c1c(=O)n2Cc1ccc(F)cc1`, the melting point was 159 to 160 °C.
The compound `CN(C)CC(=O)Nc1cccc2c1C(=O)c1c(NC(=O)CN(C)C)cccc1C2=O` returned a melting point of 194 to 195 °C.
`COc1ccc(CS(=O)(=O)Cc2ccc(OC)cc2OC)c(OC)c1` gave a melting point of 104 to 106 °C.
Take `COc1cc(-c2nc(N)sc2CCC2CCC(C)(C)CC2)c(OC)cc1C`: the melting point was 136 to 138 °C.
The figure for `CCc1cc(=O)c(C(N)=O)c(CC)[nH]1` is 254 °C; for `CCOC(=O)c1ccc(Cl)c(Cl)c1` it is 33 to 35 °C.
For `Oc1ccc(C2OCCO2)cc1Br` the value was 76 to 78 °C; for `CNN(NC)C(=O)Nc1cccc2c1C(=O)c1c-2n[nH]c1C(C)C`, 231 to 233 °C.
For `CCn1nc(NC(=O)NS(=O)(=O)c2ccccc2C(=O)OC)nc1SC` the value was 188 to 191 °C; for `Fc1ccccc1Cn1nnc2c(NC3CC3)nccc21`, 245 to 247 °C.
Turning to `CCOC(=O)C(C)Oc1ccc(Nc2ccc(C(F)(F)F)cc2[N+](=O)[O-])cc1` (centres undefined), the melting point was 61 to 63 °C.
The figure for `O=c1[nH]c2ncc(-c3ccc(O)cc3)nc2n1CC1CCCC1` is 296 to 297 °C.
The figure for `CCOc1nc2c(cnn2CC)nc1C#N` is 73 to 74 °C; for `COc1cc(C(=O)NS(=O)(=O)c2ccccc2C)ccc1Cc1cn(C)c2ccc(NC(=O)NC3CCCC3)cc12` it is 212 to 215 °C.
The compound `CCCOCCOc1ccc(OCC(O)CNCCNc2cc(=O)n(C)c(=O)n2C)cc1` (centres undefined) displayed a melting point of 125 °C.
For `CCCS(=O)(=O)c1ccc2c(c1)C1(O)C(C2)SC(=NCC)N1CC` (centres undefined) the value was 136 °C.
The figure for `N#CCCCC1Sc2ccccc2NC1=O` (centres undefined) is 107 to 108 °C; for `Cc1cc(C=NNC(N)=S)ncc1[N+](=O)[O-]` it is 220 to 222 °C.
For `COc1ccc(-c2cc(C(C)(C)CC(C)(C)C)cc(-n3nc4ccc(C(F)(F)F)cc4n3)c2O)cc1` the value was 99 to 102 °C.
`O=C(O)c1cnn(O)c1`: the melting point worked out at 230 °C.
